# Experimental data: US20140271667A1, “Methods and Compositions for Neoadjuvant Therapy” (The Wistar Institute of Anatomy and Biology, priority 2013, published 2014)
# Assays:
# PC3 cells [1] = experiment: Matrigel-coated transwell cell invasion; format: cell-based, human; conditions: Gamitrinib 5 μM, 17-AAG 5 μM, CCCP 12.5 μM, 2-DG 25 mM, 16 h
# Method: (§1) Various tumor cell types were treated as indicated in each experiment, suspended in 0.1% BSA/DMEM and seeded (1.6−3.2×10^3 cells/mm2, depending on the cell type) in the upper compartment of […] pore diameter BD transwells (BD). NIH3T3 conditioned medium was placed in the lower compartment as a chemoattractant. After 6-18 h incubations at 37° C., the transwell membranes were recovered and cells on the upper side (non-migratory) were wiped off the surface. Cells on the lower side of the membrane were fixed in methanol, rinsed in water and mounted on glass slides with Vectashield medium containing DAPI (Vector Laboratories). Migrated cells on each membrane were counted by fluorescence microscopy in 5 different fields. For cell invasion assays, transwell membranes were coated with Matrigel and processed as described above.
# PC3 cells [2] = experiment: Transwell cell migration; format: cell-based, human; conditions: Gamitrinib 5 μM, 17-AAG 5 μM, CCCP 12.5 μM, 2-DG 25 mM, rapamycin 0.1 μM, 6 h
# Method: as §1
# PC3 cells [3] = experiment: Cell proliferation by direct cell counting; format: cell-based, human; conditions: vs vehicle, Gamitrinib 5 μM, CCCP 12.5 μM, 2-DG 25 mM
# Method: (§2) Tumor cells were plated onto 96-well plates at 3.7×10^3/well and treated with vehicle or Gamitrinib (5 μM). After 24 h, cell viability was assessed with a 3 (4,5-dimethyl-thyazoyl-2-yl)2,5 diphenyltetrazolium bromide (MTT) colorimetric assay (24), or, alternatively, by Trypan blue exclusion and light microscopy. Data were background-subtracted relative to vehicle-treated cultures. In some experiments, tumor cell proliferation was assessed by direct cell counting and light microscopy.
# PC3 cells [4] = experiment: Cell death by Trypan blue exclusion; format: cell-based; conditions: vs vehicle, Gamitrinib 5 μM, CCCP 12.5 μM, 2-DG 25 mM
# Method: as §2
# ULK1 = experiment: Western blotting, ULK1 phosphorylation and level; format: cell-based, human; conditions: for ULK1 phosphorylation on Ser555: Gamitrinib 5 μM (within 1-2 h); for ULK1 phosphorylation on Ser555 / ULK1 phosphorylation on Ser757: metformin 5 mM 6 h, 17-AAG 5 μM; for ULK1 phosphorylation on Ser757: Gamitrinib 5 μM
# Method: (§3) Protein lysates were prepared in RIPA buffer containing 150 mM NaCl, 1.0% Triton X-100, 0.5% sodium deoxycholate, 0.1% SDS, 50 mM Tris, pH 8.0, in the presence of EDTA-free protease inhibitor cocktail (Roche) and phosphatase inhibitor cocktail 2 and 3 (Sigma Aldrich). Equal amounts of protein lysates were separated by SDS gel electrophoresis, transferred to PVDF membranes and incubated with primary antibodies of various specificities. Protein bands were detected by chemiluminescence, as described (21).
# AMPK = experiment: Western blotting, AMPK and ACC phosphorylation; format: cell-based, human; conditions: PC3; Gamitrinib 5 μM time course, metformin 5 mM 6 h, 17-AAG 5 μM time course
# Method: as §3
# Raptor = experiment: Western blotting, Raptor phosphorylation; format: cell-based, human; conditions: PC3; Gamitrinib 5 μM, metformin 5 mM 6 h, 17-AAG 5 μM
# Method: as §3
# [5] = test system: Focal Adhesion Kinase (FAK); experiment: Western blotting, FAK phosphorylation; format: cell-based, human; conditions: tumor cells (PC3); Gamitrinib 5 μM, CCCP 12.5 μM, rapamycin 0.1 μM
# Method: as §3
# 4EBP1 = experiment: Western blotting, 4EBP1 phosphorylation; format: cell-based, human; conditions: PC3; rapamycin 0.1 μM
# Method: as §3
Compound,tumor cell invasion (PC3 cells [1]),tumor cell migration (PC3 cells [2]),tumor cell proliferation (PC3 cells [3]),cell death by Trypan blue exclusion (PC3 cells [4]),"ULK1 level after longer exposure (ULK1; 24-h exposure of tumor cells, data not shown)",ULK1 phosphorylation on Ser555 (ULK1; PC3),ULK1 phosphorylation on Ser757 (ULK1; PC3),"total level of ULK1 (ULK1; PC3, time points of the Western blot experiment)",AMPK and ACC phosphorylation (AMPK),Raptor phosphorylation on Ser792 (Raptor),FAK phosphorylation on Tyr397 and Tyr925 [5],4EBP1 phosphorylation (4EBP1)
"O=CC[C@@H](O)[C@H](O)[C@H](O)CO [2-DG, 2-deoxy-D-glucose]",suppressed,suppressed tumor cell migration,did not affect cell proliferation,did not affect,,,,,,,,
"C=CCNC1=C2C[C@@H](C)C[C@H](OC)[C@H](O)[C@@H](C)/C=C(\C)[C@H](OC(N)=O)[C@@H](OC)/C=C\C=C(/C)C(=O)NC(=CC1=O)C2=O [17-AAG, 17-allylamino demethoxygeldanamycin]",did not affect tumor cell migration or invasion,did not affect tumor cell migration or invasion,,,caused ULK1 degradation,equally reduced,equally reduced,not affected,did not affect AMPK or ACC phosphorylation,remained unphosphorylated,,
"N#CC(C#N)=NNc1cccc(Cl)c1 [CCCP, carbonyl cyanide 3-chlorophenylhydrazone]",suppressed,suppressed tumor cell migration,did not affect cell proliferation,did not affect,,,,,,,abolished FAK phosphorylation,
CN(C)C(=N)N=C(N)N [metformin],,,,,,increased ULK1 phosphorylation on Ser555,decreased phosphorylation of ULK1 on Ser757,,activation of AMPK and ACC,phosphorylation of Raptor on Ser792,,
"CO[C@H]1C[C@@H]2CC[C@@H](C)[C@@](O)(O2)C(=O)C(=O)N2CCCC[C@H]2C(=O)O[C@H]([C@H](C)C[C@@H]2CC[C@@H](O)[C@H](OC)C2)CC(=O)[C@H](C)/C=C(\C)[C@@H](O)[C@@H](OC)C(=O)[C@H](C)C[C@H](C)/C=C/C=C/C=C/1C [rapamycin, Rapamycin]",,no effect,,,,,,,,,no effect,suppressed 4EBP1 phosphorylation
